Source: ChEMBL document CHEMBL1121833, “Structure--sweetness relationship of L-aspartyl dipeptide analogues. A receptor site topology” (J Med Chem, 1981)
Peptide text beside a SMILES is read from it.

Tests used:
Assay type in all cases: functional
[1] = Sweet potency as logarithm of sweet potency (log SP) relative to sucrose; Bitter
[2] = Sweet potency as logarithm of sweet potency (log SP) relative to sucrose; Sweet
[3] = Sweet potency as logarithm of sweet potency (log SP) relative to sucrose; No sweet
[4] = Sweet potency as logarithm of sweet potency (log SP) relative to sucrose; Tasteless
[5] = Sweet potency as logarithm of sweet potency (log SP) relative to sucrose

Structure (SMILES): C[C@H](CC1CCCCC1)N(C)C(=O)[C@H](N)CC(=O)O
- Log SP [1]: Bitter

Structure (SMILES): C[C@@H](Cc1ccccc1)N(C)C(=O)[C@H](N)CC(=O)O
- Log SP [1]: Bitter

Structure (SMILES): N[C@H](CC(=O)O)C(=O)NCCc1ccco1
- Log SP [2]: Sweet

Structure (SMILES): N[C@H](CC(=O)O)C(=O)N[C@@H](CO)Cc1ccc(O)cc1
- Log SP [2]: Sweet

Structure (SMILES): COC(=O)C(CNC(=O)[C@H](N)CC(=O)O)Cc1ccccc1 (some centres undefined)
- Log SP [3]: Not sweet

Structure (SMILES): N[C@H](CC(=O)O)C(=O)N[C@@H](CO)Cc1ccccc1
- Log SP [2]: Sweet

Structure (SMILES): CCC[C@H](C)NC(=O)[C@H](N)CC(=O)O
- Log SP [4]: Tasteless

Structure (SMILES): N[C@H](CC(=O)O)C(=O)NCCc1ccccc1
- Log SP [4]: Tasteless

Structure (SMILES): CC(C)C[C@H](C)NC(=O)[C@H](N)CC(=O)O
- Log SP [1]: Bitter

Structure (SMILES): CCOC(=O)[C@H](NC(=O)[C@H](N)CC(=O)O)C(=O)OC(C)(C)C
- Log SP [5]: 2.32
- Log SP [2]: Sweet

Structure (SMILES): C[C@@H](COC(=O)c1ccccc1)NC(=O)[C@H](N)CC(=O)O
- Log SP [3]: Not sweet

Structure (SMILES): CC(=O)OC[C@H](Cc1ccccc1)NC(=O)[C@H](N)CC(=O)O
- Log SP [3]: Not sweet

Structure (SMILES): C[C@H](Cc1ccccc1)N(C)C(=O)[C@H](N)CC(=O)O
- Log SP [1]: Bitter

Structure (SMILES): C[C@@H](Cc1ccc2c(c1)OCO2)NC(=O)[C@H](N)CC(=O)O
- Log SP [1]: Bitter

Structure (SMILES): COC(=O)C(CNC(=O)[C@H](N)CC(=O)O)C(=O)OC
- Log SP [3]: Not sweet

Structure (SMILES): COC(=O)C(CNC(=O)[C@H](N)CC(=O)O)C(=O)OC1CCCCC1 (some centres undefined)
- Log SP [3]: Not sweet

Structure (SMILES): C[C@@H](COC(=O)C1CCCCC1)NC(=O)[C@H](N)CC(=O)O
- Log SP [3]: Not sweet

Structure (SMILES): CCC(C)[C@@H](COC(C)=O)NC(=O)[C@H](N)CC(=O)O (some centres undefined)
- Log SP [3]: Not sweet

Structure (SMILES): CCOC(=O)C[C@H](Cc1ccccc1)NC(=O)[C@H](N)CC(=O)O
- Log SP [3]: Not sweet

Structure (SMILES): CC[C@@H](CC(=O)OC1CCCCC1)NC(=O)[C@H](N)CC(=O)O
- Log SP [3]: Not sweet

Structure (SMILES): COC(=O)[C@@H](CCCCN)NC(=O)[C@H](N)CC(=O)O
- Log SP [1]: Bitter

Structure (SMILES): CC(CNC(=O)[C@H](N)CC(=O)O)c1ccccc1 (some centres undefined)
- Log SP [1]: Bitter

Structure (SMILES): CC[C@@H](CC(=O)OC(C)C)NC(=O)[C@H](N)CC(=O)O
- Log SP [3]: Not sweet

Structure (SMILES): C[C@H](NC(=O)[C@H](N)CC(=O)O)C(O)c1ccccc1 (some centres undefined)
- Log SP [2]: Sweet

Structure (SMILES): C[C@@H](COC(=O)C1CCCC(C)(C)C1)NC(=O)[C@H](N)CC(=O)O (some centres undefined)
- Log SP [3]: Not sweet

Structure (SMILES): CCCCC(=O)OC[C@H](CC)NC(=O)[C@H](N)CC(=O)O
- Log SP [3]: Not sweet

Structure (SMILES): C[C@@H](Cc1cc2ccccc2[nH]1)NC(=O)[C@H](N)CC(=O)O
- Log SP [1]: Bitter

Structure (SMILES): CC1CCCCC1OC(=O)CCNC(=O)[C@H](N)CC(=O)O (some centres undefined)
- Log SP [3]: Not sweet

Structure (SMILES): CCC[C@@H](COC(=O)CC)NC(=O)[C@H](N)CC(=O)O
- Log SP [3]: Not sweet

Structure (SMILES): CCCC[C@H](CC)NC(=O)[C@H](N)CC(=O)O
- Log SP [2]: Sweet

Structure (SMILES): COC(=O)[C@@H](COC(=O)c1ccccc1)NC(=O)[C@H](N)CC(=O)O
- Log SP [3]: Not sweet

Structure (SMILES): CC[C@H](C)[C@H](NC(=O)[C@@H](N)CC(=O)O)C(=O)OC (H-Asp-Ile-OMe)
- Log SP [3]: Not sweet

Structure (SMILES): CCC(C)C[C@H](C)NC(=O)[C@H](N)CC(=O)O (some centres undefined)
- Log SP [2]: Sweet

Structure (SMILES): CCCCCCNC(=O)[C@H](N)CC(=O)O
- Log SP [2]: Sweet

Structure (SMILES): COC(=O)[C@@H](CC(=O)OC1CCCCC1)NC(=O)[C@H](N)CC(=O)O
- Log SP [3]: Not sweet

Structure (SMILES): CC(C)C[C@H](NC(=O)[C@H](N)CC(=O)O)C(=O)OC(C)C
- Log SP [3]: Not sweet

Structure (SMILES): N[C@H](CC(=O)O)C(=O)NCCc1ccc(O)cc1
- Log SP [2]: Sweet

Structure (SMILES): CCC[C@H](CC)NC(=O)[C@H](N)CC(=O)O
- Log SP [1]: Bitter

Structure (SMILES): COC(=O)[C@@H](CC(C)C)NC(=O)[C@H](N)CC(=O)O
- Log SP [3]: Not sweet

Structure (SMILES): C[C@@H](CC1CCCCC1)N(C)C(=O)[C@H](N)CC(=O)O
- Log SP [1]: Bitter

Structure (SMILES): N[C@H](CC(=O)O)C(=O)NCCOc1ccccc1
- Log SP [2]: Sweet

Structure (SMILES): C[C@@H](Cc1ccc(NS(C)(=O)=O)cc1)NC(=O)[C@H](N)CC(=O)O
- Log SP [1]: Bitter

Structure (SMILES): COC(=O)[C@@H](CSC(C)C)NC(=O)[C@H](N)CC(=O)O
- Log SP [5]: 2.23

Structure (SMILES): COC(=O)[C@H](NC(=O)[C@H](N)CC(=O)O)C(=O)OC1CCC(C)CC1 (some centres undefined)
- Log SP [5]: 1.87

Structure (SMILES): CCOC(=O)[C@H](C)NC(=O)[C@H](N)CC(=O)O
- Log SP [5]: 1.75

Structure (SMILES): CCCOC(=O)[C@H](CC)NC(=O)[C@H](N)CC(=O)O
- Log SP [5]: 1.86

Structure (SMILES): CC(CNC(=O)[C@H](N)CC(=O)O)C(=O)OC1CCCC1 (some centres undefined)
- Log SP [5]: 0.88

Structure (SMILES): CC(CNC(=O)[C@H](N)CC(=O)O)C(=O)OC(C)(C)C (some centres undefined)
- Log SP [5]: 0.51

Structure (SMILES): CC(=O)OC[C@H](CC(C)C)NC(=O)[C@H](N)CC(=O)O
- Log SP [3]: Not sweet

Structure (SMILES): CCCC(C)OC(=O)CCNC(=O)[C@H](N)CC(=O)O (some centres undefined)
- Log SP [5]: 0.68

Structure (SMILES): CCCCCCC(C)NC(=O)[C@H](N)CC(=O)O (some centres undefined)
- Log SP [5]: 1.17

Structure (SMILES): CC(C)OC(=O)[C@H](NC(=O)[C@@H](N)CC(=O)O)[C@@H](C)O
- Log SP [5]: 1.93

Structure (SMILES): CCCCCCCNC(=O)[C@H](N)CC(=O)O
- Log SP [2]: Sweet

Structure (SMILES): C=CC(=O)OC[C@H](C)NC(=O)[C@H](N)CC(=O)O
- Log SP [5]: 1.85

Structure (SMILES): COC(=O)C(CNC(=O)[C@H](N)CC(=O)O)C(=O)OC1CCCC1 (some centres undefined)
- Log SP [3]: Not sweet

Structure (SMILES): CC(C)OC(=O)[C@H](NC(=O)[C@@H](N)CC(=O)O)[C@H](C)O
- Log SP [5]: 0.91

Structure (SMILES): N[C@H](CC(=O)O)C(=O)NCCc1ccc(F)cc1
- Log SP [5]: 0.57

Structure (SMILES): COC(=O)[C@H](Cc1ccccc1)NC(=O)[C@@H](N)CC(=O)O
- Log SP [5]: 2.11

Structure (SMILES): CCC(=O)OC[C@H](COC)NC(=O)[C@H](N)CC(=O)O
- Log SP [5]: 1.21

Structure (SMILES): COC(=O)C(NC(=O)[C@@H](N)CC(=O)O)C(=O)OC1CCCCC1C (stereo in doubt; 202)
- Log SP [5]: 3.92

Structure (SMILES): CC[C@@H](COC(=O)C1CCC1)NC(=O)[C@H](N)CC(=O)O
- Log SP [5]: 1.4

Structure (SMILES): N[C@H](CC(=O)O)C(=O)N[C@@H](CO)COC(=O)C1CCCC1
- Log SP [5]: 0.92

Structure (SMILES): CC(C)(C)OC(=O)CCNC(=O)[C@H](N)CC(=O)O
- Log SP [5]: 0.36

Structure (SMILES): CCC[C@@H](COC(C)=O)NC(=O)[C@H](N)CC(=O)O
- Log SP [5]: 0.66

Structure (SMILES): CCC(=O)OC[C@@H](NC(=O)[C@H](N)CC(=O)O)C(C)C
- Log SP [5]: 1.6

Structure (SMILES): CCCCCOC(=O)[C@H](C)NC(=O)[C@H](N)CC(=O)O
- Log SP [5]: 0.68

Structure (SMILES): CCCCOC(=O)CCNC(=O)[C@H](N)CC(=O)O
- Log SP [3]: Not sweet

Structure (SMILES): COC(=O)C(NC(=O)[C@@H](N)CC(=O)O)C(=O)OC1CC2CCC1(C)C2(C)C (some centres undefined)
- Log SP [5]: 3.16

Structure (SMILES): C[C@@H](COc1ccccc1)NC(=O)[C@H](N)CC(=O)O
- Log SP [5]: 1.19

Structure (SMILES): CC(Cc1ccccc1)NC(=O)[C@H](N)CC(=O)O (some centres undefined)
- Log SP [5]: 1.56

Structure (SMILES): COC(=O)[C@@H](COC(=O)C(C)(C)C)NC(=O)[C@H](N)CC(=O)O
- Log SP [5]: 1.81

Structure (SMILES): CC[C@@H](COC(C)=O)NC(=O)[C@H](N)CC(=O)O
- Log SP [5]: 1.16

Structure (SMILES): C[C@@H](O)[C@@H](NC(=O)[C@@H](N)CC(=O)O)C(=O)OC1CCCCC1
- Log SP [5]: 1.44

Structure (SMILES): CC(=O)OC[C@@H](NC(=O)[C@H](N)CC(=O)O)C(C)C
- Log SP [5]: 1.58

Structure (SMILES): CC(C)OC(=O)[C@H](C)NC(=O)[C@H](N)CC(=O)O
- Log SP [5]: 1.95

Structure (SMILES): C=C(C)C(=O)OC[C@H](C)NC(=O)[C@H](N)CC(=O)O
- Log SP [5]: 1.99

Structure (SMILES): COC(=O)[C@H](NC(=O)[C@H](N)CC(=O)O)C(=O)OC(C)(C)C
- Log SP [5]: 2.03

Structure (SMILES): CC(C)COC(=O)[C@H](NC(=O)[C@@H](N)CC(=O)O)[C@H](C)O
- Log SP [5]: 1.36

Structure (SMILES): C[C@@H](Cc1ccc(O)cc1)NC(=O)[C@H](N)CC(=O)O
- Log SP [2]: Sweet

Structure (SMILES): CC(C)C(=O)OCCNC(=O)[C@H](N)CC(=O)O
- Log SP [5]: 1.16

Structure (SMILES): CCCC[C@@H](NC(=O)[C@H](N)CC(=O)O)C(=O)OC
- Log SP [5]: 1.49

Structure (SMILES): CCCOC(=O)CNC(=O)[C@H](N)CC(=O)O
- Log SP [5]: 0.98

Structure (SMILES): COC(=O)C(NC(=O)[C@@H](N)CC(=O)O)C(=O)OC1CC(C)CCC1C(C)C (some centres undefined)
- Log SP [3]: Not sweet

Structure (SMILES): CC[C@@H](COC(=O)C1CCCCC1)NC(=O)[C@H](N)CC(=O)O
- Log SP [3]: Not sweet

Structure (SMILES): N[C@H](CC(=O)O)C(=O)N[C@@H](CO)C(=O)OC1CCCCC1
- Log SP [5]: 1.72

Structure (SMILES): CC(C)COC(=O)[C@H](CO)NC(=O)[C@H](N)CC(=O)O
- Log SP [5]: 2.21

Structure (SMILES): COC(=O)[C@@H](CCCCNC(C)=O)NC(=O)[C@H](N)CC(=O)O
- Log SP [5]: 0.27

Structure (SMILES): CC(C)CCCNC(=O)[C@H](N)CC(=O)O
- Log SP [4]: Tasteless
